Test results: ChEMBL document CHEMBL1201862, “PubChem BioAssay data set” (2004)
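How tested: cells in 96-well plates exposed to compound for 48 hours at five concentrations. At the GI50, growth is halved.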 Active and inactive are the calls of the source. Cut-off read from the data, not from the text of the source: active = GI50 up to about 1.1 µM and inactive = higher.

What was measured:
Test in all cases: inhibition of tumour cell growth, NCI panel, 48 h
SK-MEL-2 = tested on: SK-MEL-2
UACC-62 = tested on: UACC-62
RPMI-8226 = tested on: RPMI-8226
HOP-62 = tested on: HOP-62
IGROV-1 = tested on: IGROV-1
OVCAR-5 = tested on: OVCAR-5
TK-10 = tested on: TK-10
SR = tested on: SR
SK-OV-3 = tested on: SK-OV-3
A498 = tested on: A498
NCI-H522 = tested on: NCI-H522
MOLT-4 = tested on: MOLT-4
OVCAR-3 = tested on: OVCAR-3
SF-295 = tested on: SF-295
SK-MEL-5 = tested on: SK-MEL-5
SNB-75 = tested on: SNB-75
K562 = tested on: K562
SF-539 = tested on: SF-539

| Structure (SMILES) | GI50 (SK-MEL-2) | GI50 (UACC-62) | GI50 (RPMI-8226) | GI50 (HOP-62) | GI50 (IGROV-1) | GI50 (OVCAR-5) | GI50 (TK-10) | GI50 (SR) | GI50 (SK-OV-3) | GI50 (A498) | GI50 (NCI-H522) | GI50 (MOLT-4) | GI50 (OVCAR-3) | GI50 (SF-295) | GI50 (SK-MEL-5) | GI50 (SNB-75) | GI50 (K562) | GI50 (SF-539) |
| --- | --- | --- | --- | --- | --- | --- | --- | --- | --- | --- | --- | --- | --- | --- | --- | --- | --- | --- |
| O=C(O)c1cc(=O)c2cc(C(=O)c3cccs3)c(Cl)c(Cl)c2o1 | > 100 µM (inactive) | > 100 µM (inactive) | > 100 µM (inactive) | > 100 µM (inactive) | > 100 µM (inactive) | > 100 µM (inactive) | > 100 µM (inactive) | > 100 µM (inactive) | > 100 µM (inactive) | > 100 µM (inactive) | > 100 µM (inactive) | > 100 µM (inactive) | > 100 µM (inactive) | > 100 µM (inactive) | > 100 µM (inactive) | > 100 µM (inactive) | > 100 µM (inactive) | – |
| O=C(c1ccc(Cl)cc1Cl)N(/N=C/C=C/c1ccccc1)c1nnc(-c2ccccc2)c(-c2ccccc2)n1 | > 100 µM (inactive) | > 100 µM (inactive) | 37.5 µM (inactive) | > 100 µM (inactive) | > 100 µM (inactive) | > 100 µM (inactive) | > 100 µM (inactive) | – | > 100 µM (inactive) | > 100 µM (inactive) | 21.8 µM (inactive) | 70 µM (inactive) | > 100 µM (inactive) | > 100 µM (inactive) | > 100 µM (inactive) | > 100 µM (inactive) | > 100 µM (inactive) | > 100 µM (inactive) |
| CC(=O)C1Cn2c(nc3ccccc32)C[Se]1 (configuration not stated) | – | 1.97 µM (inactive) | 25.3 µM (inactive) | 2.37 µM (inactive) | 2.22 µM (inactive) | 3.05 µM (inactive) | 4.41 µM (inactive) | 3.1 µM (inactive) | 19.5 µM (inactive) | 17.7 µM (inactive) | 3.28 µM (inactive) | 2.29 µM (inactive) | 2.22 µM (inactive) | 3.26 µM (inactive) | 2 µM (inactive) | 2.55 µM (inactive) | 4.23 µM (inactive) | 2.29 µM (inactive) |
| COc1ccc(OC)c2c1C(=O)C1CC1(Br)C2=O (configuration not stated) | > 100 µM (inactive) | > 100 µM (inactive) | > 100 µM (inactive) | > 100 µM (inactive) | > 100 µM (inactive) | > 100 µM (inactive) | > 100 µM (inactive) | – | > 100 µM (inactive) | > 100 µM (inactive) | > 100 µM (inactive) | > 100 µM (inactive) | > 100 µM (inactive) | > 100 µM (inactive) | > 100 µM (inactive) | – | > 100 µM (inactive) | > 100 µM (inactive) |
| Cn1nc(-c2ccccc2)c(C(=O)/C=C/c2ccc(F)cc2)c(N2CCCC2)c1=O | – | 12.7 µM (inactive) | 6.62 µM (inactive) | – | 21.4 µM (inactive) | – | 24 µM (inactive) | – | 19.5 µM (inactive) | – | 6.4 µM (inactive) | 4.41 µM (inactive) | – | – | 12.4 µM (inactive) | – | 7.82 µM (inactive) | 13.6 µM (inactive) |
| COc1ccc(CCc2cc(OC)c(O)c(OC)c2)cc1 | 53 µM (inactive) | 69 µM (inactive) | 50.8 µM (inactive) | 98.6 µM (inactive) | > 100 µM (inactive) | 44 µM (inactive) | – | 37.3 µM (inactive) | > 100 µM (inactive) | – | 29.7 µM (inactive) | 35.7 µM (inactive) | 79.4 µM (inactive) | – | 32.8 µM (inactive) | 29.4 µM (inactive) | 33 µM (inactive) | 60.7 µM (inactive) |
| CC(C)CC(N)C(=O)OCN1C(=O)C2C3C=CC(C2C1=O)C1C2C(=O)N(COC(=O)C(N)CC(C)C)C(=O)C2C31 (configuration not stated) | > 100 µM (inactive) | > 100 µM (inactive) | > 48.2 µM (inactive) | > 100 µM (inactive) | > 100 µM (inactive) | > 100 µM (inactive) | > 100 µM (inactive) | – | > 100 µM (inactive) | > 100 µM (inactive) | > 100 µM (inactive) | > 100 µM (inactive) | > 100 µM (inactive) | > 100 µM (inactive) | > 100 µM (inactive) | > 75 µM (inactive) | > 100 µM (inactive) | > 100 µM (inactive) |
| CC(C)=CCC(OC(=O)C=C(C)C)c1cc(O)c2c(c1O)C(=O)C=CC2=O (configuration not stated) | 2.01 µM (inactive) | 0.783 µM (active) | 0.171 µM (active) | 12.8 µM (inactive) | 2.04 µM (inactive) | 3.89 µM (inactive) | – | – | 5.45 µM (inactive) | 2.62 µM (inactive) | – | – | 0.839 µM (active) | 2.95 µM (inactive) | 0.883 µM (active) | 4.98 µM (inactive) | 0.27 µM (active) | 2.3 µM (inactive) |
| COc1ccc(OC)c(NC(=O)C(=O)NNC(=O)c2sc(NNC(C)=O)nc2C)c1 | 43 µM (inactive) | 29.6 µM (inactive) | 30.3 µM (inactive) | 92.9 µM (inactive) | 53.5 µM (inactive) | 72.4 µM (inactive) | 88.3 µM (inactive) | 32.1 µM (inactive) | 57.7 µM (inactive) | 8.3 µM (inactive) | 18.2 µM (inactive) | 18.7 µM (inactive) | 21.8 µM (inactive) | 32 µM (inactive) | 39.9 µM (inactive) | – | 17.1 µM (inactive) | 26.8 µM (inactive) |
| CCOC(=O)c1cc2c(OCc3ccccc3)c(OC)cc3c2c(n1)N(c1ccc(OC)cc1)C(C)C3 (configuration not stated) | > 50 µM (inactive) | 49.3 µM (inactive) | 2.69 µM (inactive) | > 50 µM (inactive) | > 50 µM (inactive) | > 50 µM (inactive) | > 50 µM (inactive) | > 50 µM (inactive) | > 50 µM (inactive) | > 50 µM (inactive) | 25.2 µM (inactive) | > 50 µM (inactive) | 23.2 µM (inactive) | > 50 µM (inactive) | > 50 µM (inactive) | > 50 µM (inactive) | > 50 µM (inactive) | – |
| O=C1[C@@H]2C(c3c(Cl)cccc3Cl)=NO[C@@H]2C(=O)N1c1ccc(Cc2ccc(N3C(=O)[C@H]4C(c5c(Cl)cccc5Cl)=NO[C@H]4C3=O)cc2)cc1 | > 100 µM (inactive) | > 100 µM (inactive) | > 100 µM (inactive) | > 100 µM (inactive) | > 100 µM (inactive) | > 100 µM (inactive) | > 100 µM (inactive) | – | > 100 µM (inactive) | > 100 µM (inactive) | – | > 100 µM (inactive) | > 100 µM (inactive) | > 100 µM (inactive) | > 100 µM (inactive) | > 100 µM (inactive) | > 100 µM (inactive) | > 100 µM (inactive) |
| CSc1ccc(/C=C2/C[N+](C)(C)C/C(=C/c3ccc(SC)cc3)C2=O)cc1 | 20.1 µM (inactive) | 0.168 µM (active) | 2.93 µM (inactive) | – | 0.185 µM (active) | 23.4 µM (inactive) | 50.7 µM (inactive) | 8.57 µM (inactive) | – | – | 7.36 µM (inactive) | 5.31 µM (inactive) | 15.9 µM (inactive) | 27.2 µM (inactive) | – | 6.52 µM (inactive) | 5.47 µM (inactive) | 17.7 µM (inactive) |
| NC(=O)c1ccc([N+](=O)[O-])cc1 | > 100 µM (inactive) | > 100 µM (inactive) | > 100 µM (inactive) | > 100 µM (inactive) | > 100 µM (inactive) | – | > 100 µM (inactive) | – | > 100 µM (inactive) | > 100 µM (inactive) | > 100 µM (inactive) | > 100 µM (inactive) | > 100 µM (inactive) | > 100 µM (inactive) | > 100 µM (inactive) | > 100 µM (inactive) | > 100 µM (inactive) | > 100 µM (inactive) |
| C=C1C(=O)OC2/C=C(\C)C3OC3/C=C(/C(=O)OC)C(O)C(OC(=O)C3(C)OC3C)C12 (configuration not stated) | 2.48 µM (inactive) | 1.01 µM (active) | – | 17.7 µM (inactive) | 2.3 µM (inactive) | 16.7 µM (inactive) | 2.74 µM (inactive) | 0.566 µM (active) | 13.4 µM (inactive) | 7.64 µM (inactive) | 0.193 µM (active) | 0.681 µM (active) | 2.42 µM (inactive) | 13.6 µM (inactive) | 1.31 µM (inactive) | 13.5 µM (inactive) | 0.685 µM (active) | 2.18 µM (inactive) |
| COc1cccc(N2C(=O)[C@H]3CC(C)c4c([nH]c5ccccc45)[C@H]3C2=O)c1 (some centres not stated) | 27.5 µM (inactive) | 39.4 µM (inactive) | 38.9 µM (inactive) | 16.8 µM (inactive) | > 100 µM (inactive) | – | 55.7 µM (inactive) | – | 27.7 µM (inactive) | 89.7 µM (inactive) | 24.9 µM (inactive) | 74.1 µM (inactive) | 40.1 µM (inactive) | 23.3 µM (inactive) | 63.8 µM (inactive) | 19.6 µM (inactive) | 46 µM (inactive) | 29.1 µM (inactive) |
| COc1ccccc1NC(=O)C1=C(C)NC(C)=C(C(=O)Nc2ccccc2OC)C1/C=C/c1ccccc1 | > 100 µM (inactive) | 97.9 µM (inactive) | 55.3 µM (inactive) | > 100 µM (inactive) | > 100 µM (inactive) | > 100 µM (inactive) | > 100 µM (inactive) | 51.8 µM (inactive) | > 100 µM (inactive) | > 100 µM (inactive) | – | 39.4 µM (inactive) | > 100 µM (inactive) | > 100 µM (inactive) | > 100 µM (inactive) | 25.8 µM (inactive) | 50.2 µM (inactive) | > 100 µM (inactive) |
| Cc1ccccc1-n1c(C)nc2c1C(=O)c1ccccc1C2=O | > 100 µM (inactive) | 47.1 µM (inactive) | – | > 100 µM (inactive) | – | 72.3 µM (inactive) | > 100 µM (inactive) | 38.9 µM (inactive) | – | > 100 µM (inactive) | 21.2 µM (inactive) | 32 µM (inactive) | 24.8 µM (inactive) | 67 µM (inactive) | 22.1 µM (inactive) | – | 37.7 µM (inactive) | 28.2 µM (inactive) |
